Measured values from US9545105B2, “1-(heterocyclic carbonyl) piperidines” (BAYER INTELLECTUAL PROPERTY GMBH, priority 2010, dated 2017).

Columns and labels:
[1] = log P by HPLC on reversed-phase column (C 18), EEC Directive 79/831 Annex V.A8; format: physicochemical; conditions: HPLC on reversed-phase column (C 18); 40° C.; 0.1% aqueous formic acid and acetonitrile; linear gradient 10% to 90% acetonitrile
Outline: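 Gradient elution (10% to 90% acetonitrile, 0.1% aqueous formic acid) at 40° C; log P interpolated linearly between flanking alkan-2-one standards (3 to 16 carbons).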

[2] = tested on: Sphaerotheca fuliginea; assay: In vivo preventive test on Sphaerotheca fuliginea (cucumber); conditions: 500 ppm of active ingredient, evaluated 7 days after inoculation
Experimental: Solvent: 49 parts by weight of N,N-dimethylformamide Emulsifier: 1 part by weight of Alkylarylpolyglycolether To produce a suitable preparation of active compound, 1 part by weight of active compound is mixed with the stated amounts of solvent and emulsifier, and the concentrate is diluted with water to the desired concentration. To test for preventive activity, young plants are sprayed with the preparation of active compound at the stated rate of application. One day after this treatment, the plants are inoculated with an aqueous spore suspension of Sphaerotheca fuliginea. Then the plants are placed in a greenhouse at approximately 23° C. and a relative atmospheric humidity of approximately 70%. The test is evaluated 7 days after the inoculation. 0% means an efficacy which corresponds to that of the untreated control, while an efficacy of 100% means that no disease is observed.

[3] = tested on: Pyrenophora teres; assay: In vivo preventive test on Pyrenophora teres (barley); conditions: 500 ppm of active ingredient, evaluated 7-9 days after inoculation
Outline: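 Young barley plants sprayed with compound in DMF/alkylaryl polyglycol ether emulsion; inoculated with P. teres spores one day later. 48 h at 22 °C, 100% humidity, then greenhouse ~20 °C, ~80% humidity; efficacy scored 7-9 days post-inoculation, 0% = untreated, 100% = no disease.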

[4] = tested on: Venturia inaequalis; assay: In vivo preventive test on Venturia inaequalis (apple scab); conditions: 100 ppm of active ingredient, evaluated 10 days after inoculation
Experimental: (§1) Solvent: 24.5 parts by weight of acetone • 24.5 parts by weight of N,N-dimethylacetamide Emulsifier: 1 part by weight of alkylaryl polyglycol ether To produce a suitable preparation of active compound, 1 part by weight of active compound is mixed with the stated amounts of solvent and emulsifier, and the concentrate is diluted with water to the desired concentration. To test for preventive activity, young plants are sprayed with the preparation of active compound at the stated rate of application. After the spray coating has dried on, the plants are inoculated with an aqueous conidia suspension of the causal agent of apple scab (Venturia inaequalis) and then remain for 1 day in an incubation cabinet at approximately 20° C. and a relative atmospheric humidity of 100%. The plants are then placed in a greenhouse at approximately 21° C. and a relative atmospheric humidity of approximately 90%. The test is evaluated 10 days after the inoculation. 0% means an efficacy which corresponds to that of the untreated control, while an efficacy of 100% means that no disease is observed.

[5] = tested on: Septoria tritici; assay: In vivo preventive test on Septoria tritici (wheat); conditions: 500 ppm of active ingredient, evaluated 21 days after inoculation
Experimental: (§2) Solvent: 49 parts by weight of N,N-dimethylacetamide Emulsifier: 1 part by weight of alkylaryl polyglycol ether To produce a suitable preparation of active compound, 1 part by weight of active compound or active compound combination is mixed with the stated amounts of solvent and emulsifier, and the concentrate is diluted with water to the desired concentration. To test for preventive activity, young plants are sprayed with the preparation of active compound or active compound combination at the stated rate of application. After the spray coating has been dried, the plants are sprayed with a spore suspension of Septoria tritici. The plants remain for 48 hours in an incubation cabinet at approximately 20° C. and a relative atmospheric humidity of approximately 100% and afterwards for 60 hours at approximately 15° C. in a translucent incubation cabinet at a relative atmospheric humidity of approximately 100%. The plants are placed in the greenhouse at a temperature of approximately 15° C. and a relative atmospheric humidity of approximately 80%. The test is evaluated 21 days after the inoculation. 0% means an efficacy which corresponds to that of the untreated control, while an efficacy of 100% means that no disease is observed.

[6] = tested on: Blumeria graminis f. sp. hordei; assay: In vivo preventive test on Blumeria graminis (barley); conditions: 500 ppm of active ingredient, evaluated 7 days after inoculation
Experimental: Solvent: 49 parts by weight of N,N-dimethylacetamide Emulsifier: 1 part by weight of alkylaryl polyglycol ether To produce a suitable preparation of active compound, 1 part by weight of active compound or active compound combination is mixed with the stated amounts of solvent and emulsifier, and the concentrate is diluted with water to the desired concentration. To test for preventive activity, young plants are sprayed with the preparation of active compound or active compound combination at the stated rate of application. After the spray coating has been dried, the plants are dusted with spores of Blumeria graminis f. sp. hordei. The plants are placed in the greenhouse at a temperature of approximately 18° C. and a relative atmospheric humidity of approximately 80% to promote the development of mildew pustules. The test is evaluated 7 days after the inoculation. 0% means an efficacy which corresponds to that of the untreated control, while an efficacy of 100% means that no disease is observed.

[7] = tested on: Leptosphaeria nodorum; assay: In vivo preventive test on Leptosphaeria nodorum (wheat); conditions: 500 ppm of active ingredient, evaluated 8 days after inoculation
Experimental: as §2, with “Leptosphaeria nodorum.” for “Septoria tritici.”, “approximately” for “approximately 100% and afterwards for 60 hours at approximately 15° C. in a translucent incubation cabinet at a relative atmospheric humidity of approximately”, “22°” for “15°”, “8” for “21”

[8] = tested on: Puccinia triticina; assay: In vivo preventive test on Puccinia triticina (wheat); conditions: 500 ppm of active ingredient, evaluated 8 days after inoculation
Experimental: as §2, with “Puccinia triticina.” for “Septoria tritici.”, “approximately” for “approximately 100% and afterwards for 60 hours at approximately 15° C. in a translucent incubation cabinet at a relative atmospheric humidity of approximately”, “20°” for “15°”, “8” for “21”

[9] = tested on: Fusarium nivale (var. majus); assay: In vivo preventive test on Fusarium nivale (wheat); conditions: 500 ppm of active ingredient, evaluated 5 days after inoculation
Experimental: Solvent: 49 parts by weight of N,N-dimethylacetamide Emulsifier: 1 part by weight of alkylaryl polyglycol ether To produce a suitable preparation of active compound, 1 part by weight of active compound or active compound combination is mixed with the stated amounts of solvent and emulsifier, and the concentrate is diluted with water to the desired concentration. To test for preventive activity, young plants are sprayed with the preparation of active compound or active compound combination at the stated rate of application. After the spray coating has been dried, the plants are slightly injured by using a sandblast and afterwards they are sprayed with a conidia suspension of Fusarium nivale (var. majus). The plants are placed in the greenhouse under a translucent incubation cabinet at a temperature of approximately 10° C. and a relative atmospheric humidity of approximately 100%. The test is evaluated 5 days after the inoculation. 0% means an efficacy which corresponds to that of the untreated control, while an efficacy of 100% means that no disease is observed.

[10] = tested on: Alternaria solani; assay: In vivo preventive test on Alternaria solani (tomato); conditions: 500 ppm of active ingredient, evaluated 7 days after inoculation
Outline: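 Young tomato plants were sprayed preventively with compound in DMF/alkylarylpolyglycolether diluted in water, then inoculated one day later with A. solani spores. Incubation was 1 day at about 22 °C and 100% RH, then about 20 °C and 96% RH. Efficacy was scored 7 days after inoculation (0% = untreated control, 100% = no disease).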

[11] = tested on: Uromyces appendiculatus; assay: In vivo preventive test on Uromyces appendiculatus (bean rust); conditions: 100 ppm of active ingredient, evaluated 10 days after inoculation
Experimental: as §1, with “spore” for “conidia”, “bean rust (Uromyces appendiculatus)” for “apple scab (Venturia inaequalis)”

[12] = tested on: Phakopsora pachyrhizi; assay: In vivo protective test on Phakopsora pachyrhizi (soybeans); conditions: 250 ppm of active ingredient, evaluated 11 days after inoculation

Compound | logP [1] | Efficacy [2] [%] | Efficacy [3] [%] | Efficacy [4] [%] | Efficacy [5] [%] | Efficacy [6] [%] | Efficacy [7] [%] | Efficacy [8] [%] | Efficacy [9] [%] | Efficacy [10] [%] | Efficacy [11] [%] | Efficacy [12] [%]
Cc1cc(C)cc(C2CCCCN2C(=O)c2c(C(F)F)nn(C)c2F)c1 (stereo not shown) [Example 30] | 3.71 | 100 | 100 | 100 | 100 | 100 | 90 | 100 | 100 |  |  | 
Cc1cc(C(=O)N2CCCCC2c2ccc(Cl)cc2)c(C)o1 (stereo not shown) [Example 53] | 4.04 |  | 95 |  | 90 | 70 | 78 | 71 | 100 | 90 |  | 
CCc1nn(C)c(F)c1C(=O)N1CCCCC1c1cc(OC)cc(OC)c1 (stereo not shown) [Example 67] | 2.84 |  | 90 | 100 |  |  |  |  |  | 95 | 95 | 90
Cc1nn(C)c(F)c1C(=O)N1CCCCC1c1cccc(Br)c1 (stereo not shown) [Example 95] | 3.06 | 91 | 95 |  | 100 | 100 | 89 | 71 | 100 | 100 |  | 
CCC(c1ccccc1Cl)C1CCCCN1C(=O)c1c(C(F)F)nn(C)c1F (stereo not shown) [Example 162] | 4.13 | 100 | 100 |  | 100 | 94 | 90 | 100 |  | 100 |  | 
